The subject of data set [1] is T-lymphoblastic leukemia cell line CEM. Briefly: In vitro cytotoxic activity (metabolisation of Calcein AM). The note with it: CEM cells, 72 hours incubation, called GI50, read-out: Cell line tested/IC50 (μmol/L) CEM. The class given is cell-based, human. An excerpt: (§1) In vitro Cytotoxic Activity (Metabolisation of Calcein AM). Because toxic compounds negatively influence metabolic processes of cells, many standard cytotoxicity assays are based on measurement of metabolisation rate of various artificial substrates. Resulting product is then quantified, for example, by means of spectrometry. The assays can be easily modified for use in 96-well plates. For evaluation of cytotoxicity of the 6,8-disubstituted purines of this invention, a microtiter assay based on quantification of metabolisation of Calcein AM was used. The assay is widely used in drug screening programs and in chemosensitivity testing. In live cells, Calcein AM is enzymatically hydrolysed and accumulation of resulting calcein is manifested by green fluorescence.
(§2) The following human cell lines were used for routine screening of the compounds: normal diploid fibroblasts BJ, T-lymphoblastic leukemia cell line CEM, promyelocytic leukemia cell line HL-60, erytroid leukemia cell line K-562, breast carcinoma cell line MCF-7, osteosarcoma cell line HOS and melanoma cell line G-361. The cells were maintained in Nunc/Corning 80 cm^2 plastic tissue culture flasks and cultured in cell culture medium (DMEM with 5 g/l glucose, 2 mM glutamine, […] penicillin, 100 mmg/ml streptomycin, 10% fetal calf serum and sodium bicarbonate).
(§3) The cell suspensions were prepared and diluted according to the particular cell type and the expected target cell density (2.500-30.000 cells per well based on cell growth characteristics) and pipetted (80 μl) into 96-well plates. Inoculates were allowed a pre-incubation period of 24 hours at 37° C. and 5% CO2 for stabilization. Tested compound was added in total volume of […] of water at time zero. Usually, test compound was evaluated at six 3-fold dilutions. In routine testing, the highest concentration tested was 100 μM, but it could have been adjusted because of limited solubility of a compound. All drug concentrations were tested in triplicates.
(§4) Incubations of cells with the test compounds lasted for 72 hours at 37° C., in 5% CO2 atmosphere and 100% humidity. At the end of incubation period Calcein AM in PBS was added into final concentration of 1 μg/ml. After another 1 hour of incubation fluorescence (FD) was measured with the Labsystem FIA Reader Fluoroscan Ascent (UK). Growth inhibition (GI) was estimated using the following equitation: GI=(mean FDdrug exposed wells−mean FDblank)/(mean FDcontrol wells−mean FDblank)×100%. The GI50 value, the drug concentration causing 50% reduction of Calcein AM conversion, was calculated from the obtained dose response curves.

Data set [2] deals with breast carcinoma cell line MCF-7. The description is as above. It is filed as cell-based, human. The note with it: MCF7 cells, 72 hours incubation, called GI50, read-out: Cell line tested/IC50 (μmol/L) MCF7.
Source text: as §1, §2, §3, §4

The subject of data set [3] is erytroid leukemia cell line K-562. The data set is described as above. It is filed as cell-based, human. Particulars: K-562 cells, 72 hours incubation, called GI50, read-out: Cell line tested/IC50 (μmol/L) K-562.
Source text: as §1, §2, §3, §4

Another data set relates to melanoma cell line G-361. The data set is described as above. The class given is cell-based, human. The note with it: G-361 cells, 72 hours incubation, called GI50, read-out: Cell line tested/IC50 (μmol/L) G-361.
Source text: as §1, §2, §3, §4

The test system of data set [4] is normal diploid fibroblasts BJ. Described as above. It is filed as cell-based, human. Particulars: BJ cells, 72 hours incubation, called GI50, read-out: Cell line tested/IC50 (μmol/L) BJ.
Source text: as §1, §2, §3, §4

Data set [5] deals with osteosarcoma cell line HOS. The data set is described as above. It is filed as cell-based, human. The note with it: HOS cells, 72 hours incubation, called GI50, read-out: Cell line tested/IC50 (μmol/L) HOS.
Source text: as §1, §2, §3, §4

Data set [6] has as its system Human diploid fibroblast BJ. Briefly: In vitro cytotoxic activity (metabolisation of MTT). The class given is cell-based. The note with it: 72 hours, BJ passage 18-22. How it is done: In vitro Cytotoxic Activity (metabolisation of Mtt). MTT ([…]) assay is a standard colorimetric assay for evaluation of cytotoxicity. Mitochondrial dehydrogenase activity converts yellow MTT into violet formazan which is measured by means of spectrometry.
Human diploid fibroblast BJ (passage 18-22) were seeded into 96-well plate (5.000 cells per well). After 6 hours cultivation medium (DMEM with 5 g/l glucose, 2 mM glutamine, 100 U/ml penicillin, 100 mmg/ml streptomycin, 10% fetal calf serum and sodium bicarbonate) was replaced with the cultivation medium containing test compounds in concentration range of 0-200 μM. Highest concentration was adjusted if the solubility of the compound was limiting. Every concentration was tested in pentaplicate. MTT was added to the cells after 72 hours incubation (final concentration 0.5 mg/ml) and incubation continued for another 3 hours. MTT was solubilised by DMSO and absorbance at 570 nm was measured. Growth inhibition (GI) was estimated using the following equitation: GI=(mean A drug exposed wells−mean Ablank/mean Acontrol wells−mean Ablank)×100%. The GI20 value, the drug concentration causing 20% decrease in mitochondrial dehydrogenase activity, was calculated from the obtained dose response curves.

Consider `CN(C)c1nc2ncnc(NCc3ccco3)c2[nH]1` [Compound 61, 8-Dimethylamino-6-furfurylaminopurine], for which the melting point was in the range of 245 to 246 °C.
For `Nc1nc2ncnc(NCc3cccc(O)c3O)c2[nH]1` [Compound 102], the IC50 (in data set [1]; in data set [2]; in data set [3]; with melanoma cell line G-361; in data set [4]; in data set [5]) was above 50 µmol/L each time. The GI20 in data set [6] was above 100 µM.
Regarding `Nc1nc2ncnc(NCc3ccc(O)c(O)c3)c2[nH]1` [Compound 103], the IC50 (in data set [1]; in data set [2]; in data set [3]; in the data set with melanoma cell line G-361; in data set [4]; in data set [5]) was above 50 µmol/L throughout. In data set [6], this compound registered a GI20 above 100 µM.
As for `COc1cccc(CNc2ncnc3nc(N)[nH]c23)c1O` [Compound 104], the IC50 (in data set [1]; in data set [2]; in data set [3]; in the data set on melanoma cell line G-361; in data set [4]; in data set [5]) was above 50 µmol/L each time. This compound also came in with a GI20 in data set [6] above 100 µM.
`COc1ccc(CNc2ncnc3nc(N)[nH]c23)cc1O` [Compound 105]: the IC50 (in data set [1]; in data set [2]; in data set [3]; in the data set on melanoma cell line G-361; in data set [4]; in data set [5]) was above 50 µmol/L throughout. This compound also registered a GI20 in data set [6] above 100 µM.
With `Nc1nc2ncnc(Nc3ccccc3O)c2[nH]1` [Compound 114], the IC50 (in data set [1]; in data set [2]; in data set [3]; in the data set with melanoma cell line G-361; in data set [4]; in data set [5]) was above 50 µmol/L each time. Also, the GI20 in data set [6] is above 100 µM.
`Nc1nc2ncnc(Nc3cccc(O)c3)c2[nH]1` [Compound 115]: the IC50 (in data set [1]; in data set [2]; in data set [3]; in the data set on melanoma cell line G-361; in data set [4]; in data set [5]) was above 50 µmol/L in each case. Moreover, the GI20 in data set [6] was above 100 µM.
As to `COc1nc2ncnc(NCC=C(C)C)c2[nH]1` [Compound 123, 8-Methoxy-6-(3-methylbut-2-en-1-ylamino)purine], the melting point lay within 205 to 210 °C.
On the same count and under the same terms, next, `CSc1nc2ncnc(NCC=C(C)C)c2[nH]1` [Compound 149, 6-(3-Methylbut-2-en-1-ylamino)-8-methylsulphanylpurine]: 96 to 99 °C; `N#Cc1nc2ncnc(NCc3ccccc3)c2[nH]1` [Compound 174, 6-Benzylamino-8-cyanopurine]: 210 to 213 °C.
Same read-out and setting: next, `O=C(O)c1nc2ncnc(NCc3ccccc3)c2[nH]1` [Compound 202, 6-Benzylaminopurine-8-carboxylic acid]: 230 to 232 °C.
Regarding `CC(=CCNc1ncnc2nc(NCCCN)[nH]c12)CO` [Compound 210], the IC50 (in data set [1]; in data set [2]; in data set [3]; in the data set with melanoma cell line G-361; in data set [4]; in data set [5]) was above 50 µmol/L each time. In data set [6], this compound yielded a GI20 above 100 µM.
Turning to `CC(C)=CCNc1ncnc2nc(NCCCN)[nH]c12` [Compound 211], the IC50 (in data set [1]; in data set [2]; in data set [3]; in the data set on melanoma cell line G-361; in data set [4]; in data set [5]) was above 50 µmol/L in each case. In data set [6], the GI20 was above 100 µM.
With `OCCOc1nc2ncnc(NCc3ccco3)c2[nH]1` [Example 7 (18), 6-Furfurylamino-8-(2-hydroxyethyloxy)purine], the melting point is 182 to 184 °C.
Turning to `CC(C)=CCNc1ncnc2nc(N(C)C)[nH]c12` [Example 7 (19), 8-Dimethylamino-6-(3-methylbut-2-en-1-ylamino)purine], the melting point was 246 to 249 °C.

One may read the melting point as the temperature, or range, at which the solid turns liquid.

The values above are taken from patent publication US20130072506A1, “6,8-DISUBSTITUTED PURINE COMPOSITIONS” (priority 2011, published 2013).
